The supplement of paper PMC10307832

How the values were obtained:
Test in all cases: relative viability (nuclei count vs DMSO), 5 days (fraction); higher = more cells survive
CAL-12T = system: CAL-12T
In short: (§1)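 Lung cancer cell lines in 1536-well plates were dosed by pin tool the day after seeding, either with one drug alone or with a fixed anchor-drug dose plus five library-drug doses (not always all listed) in √10 steps. After 5 days, cells were fixed and their nuclei stained in one step (final 0.05% Triton X-100, 1% formaldehyde, 1 ug/ml Hoechst), then counted on 4× images. Relative viability is the nuclei count in treated wells divided by that in vehicle wells. Values are medians of duplicate plates.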

NCI-H1666 = system: NCI-H1666
In short: as §1

NCI-H1975 = system: NCI-H1975
In short: as §1

NCI-H1755 = system: NCI-H1755
In short: as §1

UMC-11 = system: UMC-11
In short: as §1

ChaGo-K-1 = system: ChaGo-K-1
In short: as §1

HCC-15 = system: HCC-15
In short: as §1

COR-L 105 = system: COR-L 105
In short: as §1

NCI-H2126 = system: NCI-H2126
In short: as §1

NCI-H3122 = system: NCI-H3122
In short: as §1

NCI-H322M = system: NCI-H322M
In short: as §1

NCI-H441 = system: NCI-H441
In short: as §1

HCC-78 = system: HCC-78
In short: as §1

NCI-H2023 = system: NCI-H2023
In short: as §1

EPLC-272H = system: EPLC-272H
In short: as §1

HOP-62 = system: HOP-62
In short: as §1

LXF-289 = system: LXF-289
In short: as §1

NCI-H1915 = system: NCI-H1915
In short: as §1

EMC-BAC-2 = system: EMC-BAC-2
In short: as §1

NCI-H2085 = system: NCI-H2085
In short: as §1

In the case of `O=c1cc(N2CCOCC2)oc2c(-c3cccc4c3sc3ccccc34)cccc12` + CC1(C)CCC(c2ccc(Cl)cc2)=C(CN2CCN(c3ccc(C(=O)NS(=O)(=O)c4ccc(N[C@H](CCN5CCOCC5)CSc5ccccc5)c(S(=O)(=O)C(F)(F)F)c4)cc3)CC2)C1 [Navitoclax] (partner 0.5 µM), the relative viability (CAL-12T; first compound 0.01 µM) was 1.47, the relative viability (CAL-12T; first compound 0.03162 µM) was 1.17 and the relative viability (CAL-12T; first compound 0.1 µM) was 1.36. It also gave a relative viability (CAL-12T; first compound 0.3162 µM) of 1.45, a relative viability (CAL-12T; first compound 1 µM) of 1.16 and a relative viability (NCI-H1666; first compound 0.01 µM) of 0.941. The relative viability (NCI-H1666; first compound 0.03162 µM) was 0.899, the relative viability (NCI-H1666; first compound 0.1 µM) was 0.819 and the relative viability (NCI-H1666; first compound 0.3162 µM) was 0.798. The relative viability (NCI-H1666; first compound 1 µM) was 0.895, the relative viability (NCI-H1975; first compound 0.01 µM) was 1.02 and the relative viability (NCI-H1975; first compound 0.03162 µM) was 1.13. The relative viability (NCI-H1975; first compound 0.1 µM) was 1.1, the relative viability (NCI-H1975; first compound 0.3162 µM) was 0.985 and the relative viability (NCI-H1975; first compound 1 µM) was 0.994. For the same compound, the relative viability (NCI-H1755; first compound 0.01 µM) was 0.983, the relative viability (NCI-H1755; first compound 0.03162 µM) was 0.949 and the relative viability (NCI-H1755; first compound 0.1 µM) was 1.02. It also gave a relative viability (NCI-H1755; first compound 0.3162 µM) of 0.972, a relative viability (NCI-H1755; first compound 1 µM) of 0.999 and a relative viability (UMC-11; first compound 0.01 µM) of 0.302. It also gave a relative viability (UMC-11; first compound 0.03162 µM) of 0.339, a relative viability (UMC-11; first compound 0.1 µM) of 0.255 and a relative viability (UMC-11; first compound 0.3162 µM) of 0.333. For the same compound, the relative viability (UMC-11; first compound 1 µM) was 0.343, the relative viability (ChaGo-K-1; first compound 0.01 µM) was 1.04 and the relative viability (ChaGo-K-1; first compound 0.03162 µM) was 0.927. It also gave a relative viability (ChaGo-K-1; first compound 0.1 µM) of 0.729, a relative viability (ChaGo-K-1; first compound 0.3162 µM) of 1.06 and a relative viability (ChaGo-K-1; first compound 1 µM) of 0.971. It also gave a relative viability (HCC-15; first compound 0.01 µM) of 0.788, a relative viability (HCC-15; first compound 0.03162 µM) of 0.706 and a relative viability (HCC-15; first compound 0.1 µM) of 0.69. The relative viability (HCC-15; first compound 0.3162 µM) was 0.691, the relative viability (HCC-15; first compound 1 µM) was 0.667 and the relative viability (COR-L 105; first compound 0.01 µM) was 0.91. For the same compound, the relative viability (COR-L 105; first compound 0.03162 µM) was 0.817, the relative viability (COR-L 105; first compound 0.1 µM) was 0.79 and the relative viability (COR-L 105; first compound 0.3162 µM) was 0.73. It also gave a relative viability (COR-L 105; first compound 1 µM) of 0.676, a relative viability (NCI-H2126; first compound 0.01 µM) of 0.845 and a relative viability (NCI-H2126; first compound 0.03162 µM) of 0.839. The relative viability (NCI-H2126; first compound 0.1 µM) was 0.868, the relative viability (NCI-H2126; first compound 0.3162 µM) was 0.889 and the relative viability (NCI-H2126; first compound 1 µM) was 0.794. For the same compound, the relative viability (NCI-H3122; first compound 0.01 µM) was 1.02, the relative viability (NCI-H3122; first compound 0.03162 µM) was 0.981 and the relative viability (NCI-H3122; first compound 0.1 µM) was 1.02. It also gave a relative viability (NCI-H3122; first compound 0.3162 µM) of 0.966, a relative viability (NCI-H3122; first compound 1 µM) of 0.985 and a relative viability (NCI-H322M; first compound 0.01 µM) of 1.34. For the same compound, the relative viability (NCI-H322M; first compound 0.03162 µM) was 1.17, the relative viability (NCI-H322M; first compound 0.3162 µM) was 1.19 and the relative viability (NCI-H322M; first compound 1 µM) was 1.12. The relative viability (NCI-H441; first compound 0.01 µM) was 0.53, the relative viability (NCI-H441; first compound 0.03162 µM) was 0.787 and the relative viability (NCI-H441; first compound 0.1 µM) was 1.59. The relative viability (NCI-H441; first compound 0.3162 µM) was 0.738, the relative viability (NCI-H441; first compound 1 µM) was 0.585 and the relative viability (HCC-78; first compound 0.01 µM) was 0.742. It also gave a relative viability (HCC-78; first compound 0.03162 µM) of 0.831, a relative viability (HCC-78; first compound 0.1 µM) of 0.756 and a relative viability (HCC-78; first compound 0.3162 µM) of 0.755. For the same compound, the relative viability (HCC-78; first compound 1 µM) was 0.843, the relative viability (NCI-H2023; first compound 0.01 µM) was 1.07 and the relative viability (NCI-H2023; first compound 0.03162 µM) was 0.912. The relative viability (NCI-H2023; first compound 0.1 µM) was 1, the relative viability (NCI-H2023; first compound 0.3162 µM) was 0.99 and the relative viability (NCI-H2023; first compound 1 µM) was 1.01. The relative viability (EPLC-272H; first compound 0.01 µM) was 1.11, the relative viability (EPLC-272H; first compound 0.03162 µM) was 1.05 and the relative viability (EPLC-272H; first compound 0.3162 µM) was 1.04. For the same compound, the relative viability (EPLC-272H; first compound 1 µM) was 1.08, the relative viability (HOP-62; first compound 0.01 µM) was 0.935 and the relative viability (HOP-62; first compound 0.03162 µM) was 1.08. The relative viability (HOP-62; first compound 0.1 µM) was 1.02, the relative viability (HOP-62; first compound 0.3162 µM) was 0.854 and the relative viability (HOP-62; first compound 1 µM) was 1.07. The relative viability (LXF-289; first compound 0.01 µM) was 0.924, the relative viability (LXF-289; first compound 0.03162 µM) was 0.937 and the relative viability (LXF-289; first compound 0.1 µM) was 0.938. For the same compound, the relative viability (LXF-289; first compound 0.3162 µM) was 0.865, the relative viability (LXF-289; first compound 1 µM) was 0.916 and the relative viability (NCI-H1915; first compound 0.01 µM) was 0.792. The relative viability (NCI-H1915; first compound 0.03162 µM) was 0.788, the relative viability (NCI-H1915; first compound 0.1 µM) was 0.809 and the relative viability (NCI-H1915; first compound 0.3162 µM) was 0.779. The relative viability (NCI-H1915; first compound 1 µM) was 0.824, the relative viability (EMC-BAC-2; first compound 0.01 µM) was 1.09 and the relative viability (EMC-BAC-2; first compound 0.03162 µM) was 1.13. For the same compound, the relative viability (EMC-BAC-2; first compound 0.1 µM) was 1.18, the relative viability (EMC-BAC-2; first compound 0.3162 µM) was 1.16 and the relative viability (EMC-BAC-2; first compound 1 µM) was 1.17. It also gave a relative viability (NCI-H2085; first compound 0.01 µM) of 1.08, a relative viability (NCI-H2085; first compound 0.03162 µM) of 1.19 and a relative viability (NCI-H2085; first compound 0.1 µM) of 1.17. It also gave a relative viability (NCI-H2085; first compound 0.3162 µM) of 1.08 and a relative viability (NCI-H2085; first compound 1 µM) of 1.02.
